This is an account of results in patent US7786257B2, “Signal-1/signal-2 bifunctional peptide inhibitors” (priority 2000, dated 2010).

This test has as its system T-cells from NOD mice. The experiment in a line: ELISPOT of IL-4 and IFN-γ release by T-cells from treated NOD mice (TH1/TH2 frequency). The class given is in vivo, mouse. From the text: Groups of 3-5 NOD mice were immunized subcutaneously (s.c.) with the GAD 65 peptide in CFA (40 nanomoles/mouse) at the tail base. Different groups received either the EGAD-BPI, its single TCR epitope (Signal-1 moiety), or its CD11a peptide (Signal-2 moiety) i.v. (all 40 nanomoles/mouse). After 6-8 days, another identical 40 nanomole injection was given to each mouse, and the next day lymph nodes draining the site of the s.c. injection were made into single cell suspensions for culture. Identical primary cultures were incubated for 96 hours; then, viable T-cells were recovered by density gradient centrifugation. One million of these cells were combined in nitrocellulose-bottomed 96-well plates (Millititer-HA, Millipore, Bedford, Mass.), previously coated (50 μl/well) with mAb to either mouse IFNγ (clone R4-6A2), or mouse IL-4 (clone BVD4-1D11) at a concentration of 10 μg/ml in PBS. Groups of triplicate cultures were incubated with either Concanavalin-A (2 μg/ml), or the Signal-1 peptide moiety plus 20 U/ml recombinant IL2 (R & D Systems). After 72-96 hours of culture at 37° C. and 5% CO2, plates were washed three times with PBS-0.05% Tween-20. In appropriate wells are added biotinylated anti-IFNγ (clone XMG1.2) or biotinylated anti-IL-4 (clone BVD6-24G2) at a concentration of 1 μg/ml and incubated for 1 hour at room temperature. Positive control wells receive known TH1 or TH2 clones in place of normal T-cells. MAb pairs to IL12, IL10, and IL2 are also available and will be used to test for these cytokines in the same assay. All mAb and recombinant controls are purchased from PharMingen (San Diego, Calif.). Finally, plates were washed three times with PBS-Tween, and then exposed to 100 μl of a 1:2000 dilution of streptavidin alkaline phosphatase (Jackson ImmunoResearch, West Grove, Pa.) for 1 h and washed as before. […]

Where no end group is shown, it is not given here. [ ]: non-standard residue; d: D form. Ahx = NCCCCCC(=O)O

Turning to “GAD65(208-217)-[Ac-G-Ac-G-Ac]-CD11a (237-247) (EIAPVFVLLE[Ahx]G[Ahx]G[Ahx]ITDGEATDSG) [EGAD-BPI]”, under “T-cells from treated animals stimulated in vitro with mitogen”, the IFN-γ production entry is given as “also increased, although to a lesser extent”. Besides, for the setting “T-cells from treated animals stimulated in vitro with mitogen, versus saline control, 40 nanomoles/mouse i.v. twice”, the IL-4 production increase result is reported as “approximately 10 fold”. In addition, the IL-4 production result (treated NOD mice versus control mice) is reported as “abundant IL-4”.
